# From patent US10138225B2 (Achillion Pharmaceuticals, Inc., priority 2015, dated 2018)
# pIC50: −log10 of the molar value.
# Target: T1, Human Factor D (Homo sapiens, UniProt P00746)
# T1 construct: purified from human serum; purchased Complement Technology, Inc; host or cells: human serum (natural protein, not recombinant)
# Assay: Human Factor D Assay
# Assay type: biochemical
# Details: Table 1; Factor D 80 nM, substrate Z-L-Lys-SBzl; read-out: IC50
# Procedure: Human Factor D (purified from human serum, Complement Technology, Inc.) at 80 nM final concentration is incubated with test compound at various concentrations for 5 minutes at room temperature in 50 mM Tris, 1M NaCl, pH 7.5. A synthetic substrate Z-L-Lys-SBzl and DTNB (Ellman's reagent) are added to final concentrations of 100 μM each. Absorbance at 405 nm (A405) is recorded at 30 second intervals for 30 minutes using a microplate spectrophotometer. IC50 values are calculated by nonlinear regression of complement Factor D reaction rates as a function of test compound concentration.
# T1 sequence (P00746 26-253): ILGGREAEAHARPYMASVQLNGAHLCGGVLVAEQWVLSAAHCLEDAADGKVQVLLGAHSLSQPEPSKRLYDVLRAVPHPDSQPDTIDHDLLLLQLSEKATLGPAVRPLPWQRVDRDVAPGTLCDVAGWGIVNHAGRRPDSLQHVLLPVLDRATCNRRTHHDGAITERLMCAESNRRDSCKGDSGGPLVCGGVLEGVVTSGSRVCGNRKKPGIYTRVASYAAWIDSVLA
row,SMILES,pIC50
1,"CC(=O)c1cn(CC(=O)N2C[C@H](F)C[C@H]2C(=O)NCc2cccc(Cl)c2F)c2ccc(NC(=O)N3Cc4cncnc4C3)cc12 [Compound 22, N-(3-acetyl-1-(2-((2S,4R)-2-(3-chloro-2-fluorobenzylcarbamoyl)-4-fluoropyrrolidin-1-yl)-2-oxoethyl)-1H-indol-5-yl)-5H-pyrrolo[3,4-d]pyrimidine-6(7H)-carboxamide]",> 6.00
2,"CC(=O)c1cn(CC(=O)N2C[C@H](F)C[C@H]2C(=O)Nc2cccc(-c3ccccc3Cl)c2F)c2ccc(NC(=O)CC(F)(F)F)cc12 [Compound 36, (2S,4R)-1-(2-(3-acetyl-5-(3,3,3-trifluoropropanamido)-1H-indol-1-yl)acetyl)-N-(2′-chloro-2-fluorobiphenyl-3-yl)-4-fluoropyrrolidine-2-carboxamide]",> 6.00
3,"CC(=O)c1cn(CC(=O)N2[C@@H]3C[C@@H]3C[C@H]2C(=O)NCc2cccc(Cl)c2F)c2ccc(NC(=O)N3CCCC3)cc12 [Compound 12, (1R,3S,5R)-2-(2-(3-acetyl-5-(pyrrolidine-1-carboxamido)-1H-indol-1-yl)acetyl)-N-(3-chloro-2-fluorobenzyl)-2-azabicyclo[3.1.0] hexane-3-carboxamide]",> 6.00
4,"CC(=O)c1cn(CC(=O)N2C[C@H](F)C[C@H]2C(=O)NCc2cccc(Cl)c2F)c2ccc(NC(=O)Nc3cncnc3)cc12 [Compound 23, (2S,4R)-1-(2-(3-acetyl-5-(3-pyrimidin-5-ylureido)-1H-indol-1-yl)acetyl)-N-(3-chloro-2-fluorobenzyl)-4-fluoropyrrolidine-2-carboxamide]",> 6.00
5,"CC(=O)c1cn(CC(=O)N2C[C@H](F)C[C@H]2C(=O)Nc2cccc(-c3ccccc3Cl)c2F)c2ccc(NC(=O)N3CCCC(F)(F)C3)cc12 [Compound 18, N-(3-acetyl-1-(2-((2S,4R)-2-(2′-chloro-2-fluorobiphenyl-3-ylcarbamoyl)-4-fluoropyrrolidin-1-yl)-2-oxoethyl)-1H-indol-5-yl)-3,3-difluoropiperidine-1-carboxamide]",> 6.00
6,"CC(=O)c1cn(CC(=O)N2C[C@H](F)C[C@H]2C(=O)NCc2cccc(Cl)c2F)c2ccc(NC(=O)NC3CC3)cc12 [Compound 1, (2S,4R)-1-(2-(3-acetyl-5-(3-cyclopropylureido)-1H-indol-1-yl)acetyl)-N-(3-chloro-2-fluorobenzyl)-4-fluoropyrrolidine-2-carboxamide]",> 6.00
7,"CC(=O)c1cn(CC(=O)N2C[C@H](F)C[C@H]2C(=O)NCc2cccc(Cl)c2F)c2ccc(NC(=O)N3CCCC(F)(F)C3)cc12 [Compound 16, N-(3-acetyl-1-(2-((2S,4R)-2-(3-chloro-2-fluorobenzylcarbamoyl)-4-fluoropyrrolidin-1-yl)-2-oxoethyl)-1H-indol-5-yl)-3,3-difluoropiperidine-1-carboxamide]",> 6.00
8,"CC(=O)c1cn(CC(=O)N2[C@@H]3C[C@@H]3C[C@H]2C(=O)Nc2cccc(OC(F)(F)F)c2F)c2ccc(NC(=O)NC3CC3)cc12 [Compound 11, (1R,3S,5R)-2-(2-(3-acetyl-5-(3-cyclopropylureido)-1H-indol-1-yl)acetyl)-N-(2-fluoro-3-(trifluoromethoxy)phenyl)-2-azabicyclo[3.1.0] hexane-3-carboxamide]",> 6.00
9,"CC(=O)c1cn(CC(=O)N2C[C@H](F)C[C@H]2C(=O)NCc2cccc(Cl)c2F)c2ccc(C(=O)N3CCCC(F)(F)C3)cc12 [Compound 40, (2S,4R)-1-(2-(3-acetyl-5-(3,3-difluoropiperidine-1-carbonyl)-1H-indol-1-yl)acetyl)-N-(3-chloro-2-fluorobenzyl)-4-fluoropyrrolidine-2-carboxamide]",> 6.00
10,"CC(=O)c1cn(CC(=O)N2C[C@H](F)C[C@H]2C(=O)NCc2cccc(Cl)c2F)c2cc(C(=O)NS(=O)(=O)C3CC3)ccc12 [Compound 48, 3-acetyl-1-(2-((2S,4R)-2-(3-chloro-2-fluorobenzylcarbamoyl)-4-fluoropyrrolidin-1-yl)-2-oxoethyl)-N-(cyclopropylsulfonyl)-1H-indole-6-carboxamide]",> 6.00
11,"CC(=O)c1cn(CC(=O)N2C[C@H](F)C[C@H]2C(=O)NCc2cccc(Cl)c2F)c2cc(C(=O)NS(=O)(=O)c3ccccc3)ccc12 [Compound 53, 3-acetyl-1-(2-((2S,4R)-2-(3-chloro-2-fluorobenzylcarbamoyl)-4-fluoropyrrolidin-1-yl)-2-oxoethyl)-N-(phenylsulfonyl)-1H-indole-6-carboxamide]",> 6.00
12,"CC(=O)c1cn(CC(=O)N2C[C@H](F)C[C@H]2C(=O)NCc2cccc(Cl)c2F)c2ccc(NC(=O)NCc3nn[nH]n3)cc12 [Compound 2, (2S,4R)-1-(2-(5-(3-((2H-tetrazol-5-yl)methyl)ureido)-3-acetyl-1H-indol-1-yl)acetyl)-N-(3-chloro-2-fluorobenzyl)-4-fluoropyrrolidine-2-carboxamide]",> 6.00
13,"CC(=O)c1cn(CC(=O)N2C[C@H](F)C[C@H]2C(=O)NCc2cccc(Cl)c2F)c2ccc(NC(=O)OCC3CC3)cc12 [Compound 15, cyclopropylmethyl 3-acetyl-1-(2-((2S,4R)-2-(3-chloro-2-fluorobenzylcarbamoyl)-4-fluoropyrrolidin-1-yl)-2-oxoethyl)-1H-indol-5-ylcarbamate]",> 6.00
14,"CC(=O)c1cn(CC(=O)N2C[C@H](F)C[C@H]2C(=O)NCc2cccc(Cl)c2F)c2ccc(NC(=O)NCc3ccon3)cc12 [Compound 7, (2S,4R)-1-(2-(3-acetyl-5-(3-(isoxazol-3-ylmethyl)ureido)-1H-indol-1-yl)acetyl)-N-(3-chloro-2-fluorobenzyl)-4-fluoropyrrolidine-2-carboxamide]",> 6.00

# Same assay, conditions: Table 2; Factor D 80 nM, substrate Z-L-Lys-SBzl; read-out: IC50
row,pIC50,SMILES
1,> 6.00,"CC(C)(C)C(=O)Nc1nc2c(s1)c(C(N)=O)nn2CC(=O)N1C[C@H](F)C[C@H]1C(=O)Nc1cccc(-c2ccccc2Cl)c1F [Compound 55, 1-(2-((2S,4R)-2-(2′-chloro-2-fluorobiphenyl-3-ylcarbamoyl)-4-fluoropyrrolidin-1-yl)-2-oxoethyl)-5-pivalamido-1H-pyrazolo[3,4-d]thiazole-3-carboxamide]"
2,> 6.00,"NC(=O)c1nn(CC(=O)N2C[C@H](F)C[C@H]2C(=O)Nc2cccc(-c3ccccc3Cl)c2F)c2cc(C(=O)N3CCCC3)sc12 [Compound 60, 1-(2-((2S,4R)-2-(2′-chloro-2-fluorobiphenyl-3-ylcarbamoyl)-4-fluoropyrrolidin-1-yl)-2-oxoethyl)-5-(pyrrolidine-1-carbonyl)-1H-thieno[3,2-c]pyrazole-3-carboxamide]"

# Same assay, conditions: Table 3; factor D inhibition assay; read-out: IC50 (Stars)
row,pIC50,SMILES
1,> 6.00,"CC(=O)c1cn(CC(=O)N2C[C@H](F)C[C@H]2C(=O)NCCCc2ccccc2)c2ccc(NC(=O)N3CCCC(F)(F)C3)cc12 [Compound 198, N-(3-acetyl-1-(2-((2S,4R)-4-fluoro-2-((3-phenylpropyl)carbamoyl)pyrrolidin-1-yl)-2-oxoethyl)-1H-indol-5-yl)-3,3-difluoropiperidine-1-carboxamide]"
2,> 6.00,"CC(=O)c1nn(CC(=O)N2C[C@H](F)C[C@H]2C(=O)Nc2cccc(Br)n2)c2ccc(NC(=O)N3CCC(F)(F)C3)cc12 [Compound 207, N-(3-acetyl-1-(2-((2S,4R)-2-((6-bromo-pyridin-2-yl)carbamoyl)-4-fluoro-pyrrolidin-1-yl)-2-oxoethyl)-1H-indazol-5-yl)-3,3-difluoro-pyrrolidine-1-carboxamide]"
3,> 6.00,"CC(=O)c1nn(CC(=O)N2C[C@H](F)C[C@H]2C(=O)Nc2cccc(Br)n2)c2cc(C(=O)NS(=O)(=O)C3CC3)ccc12 [Compound 233, 3-acetyl-1-(2-((2S,4R)-2-((6-bromopyridin-2-yl)-carbamoyl)-4-fluoro-pyrrolidin-1-yl)-2-oxoethyl)-N-(cyclopropylsulfonyl)-1H-indazole-6-carboxamide]"
4,5.00 to 6.00,"CC(=O)c1cn(CC(=O)N2C[C@H](F)C[C@H]2C(=O)NCCCc2ccccc2)c2ccc(C(=O)NS(=O)(=O)C3CC3)cc12 [Compound 190, 3-acetyl-N-(cyclopropylsulfonyl)-1-(2-((2S,4R)-4-fluoro-2-((3-phenylpropyl)carbamoyl)pyrrolidin-1-yl)-2-oxoethyl)-1H-indole-5-carboxamide]"
5,> 6.00,"CC(=O)c1cn(CC(=O)N2C[C@H](F)C[C@H]2C(=O)NCCc2ccccc2)c2ccc(NC(=O)N3CCCC(F)(F)C3)cc12 [Compound 197, N-(3-acetyl-1-(2-((2S,4R)-4-fluoro-2-(phenethylcarbamoyl)pyrrolidin-1-yl)-2-oxoethyl)-1H-indol-5-yl)-3,3-difluoropiperidine-1-carboxamide]"
6,< 5.00,"Cc1cccc(NC(=O)[C@@H]2[C@H]3CC[C@H](C3)N2C(=O)Cn2cc(C(N)=O)c3cc(C(=O)NS(=O)(=O)C4CC4)ccc32)n1 [Compound 209, N5-(cyclopropylsulfonyl)-1-(2-((1R,4S)-3-((6-methyl-pyridin-2-yl)carbamoyl)-2-aza-bicyclo[2.2.1]heptan-2-yl)-2-oxoethyl)-1H-indole-3,5-dicarboxamide]"
7,< 5.00,"CC(=O)c1cn(CC(=O)N2C[C@H](F)C[C@H]2C(=O)NCCc2ccccc2)c2ccc(C(=O)NS(=O)(=O)C3CC3)cc12 [Compound 185, 3-acetyl-N-(cyclopropylsulfonyl)-1-(2-((2S,4R)-4-fluoro-2-(phenethylcarbamoyl)pyrrolidin-1-yl)-2-oxoethyl)-1H-indole-5-carboxamide]"
8,> 6.00,"CC(=O)c1cn(CC(=O)N2C[C@H](F)C[C@H]2C(=O)NCCCCc2ccccc2)c2ccc(NC(=O)N3CCCC(F)(F)C3)cc12 [Compound 199, N-(3-acetyl-1-(2-((2S,4R)-4-fluoro-2-((4-phenylbutyl)carbamoyl)pyrrolidin-1-yl)-2-oxoethyl)-1H-indol-5-yl)-3,3-difluoropiperidine-1-carboxamide]"
